Usually IC50 stands for the concentration that inhibits the measured activity by half. A lower IC50 goes with inhibition by little substance.

Test [1] has as its system human colon cancer cell line HCT116 transplanted subcutaneously. Briefly: Measurement of antitumor effect in HCT116 tumor-bearing nude mouse. The test is classed as in vivo, BALB/c nude mouse. To be noted: oral, administered twice (initiation date and 3 days after). The method, then:
[Measurement of Antitumor Effect]
A representative example of the compound group of the present invention was measured in terms of antitumor effect.
Such antitumor effect was examined, using a tumor-bearing mouse produced by transplanting the human colon cancer cell line HCT116 obtained from American Type Culture Collection (Virginia, U.S.A) into the inguinal subcutis of a BALB/c nude mouse purchased from Charles River Laboratories Japan, Inc. The purchased nude mouse was quarantined for 1 week. Thereafter, approximately 5×10^6 HCT116 cells were transplanted subcutaneously. When the size of a tumor thereof became about 200 mm^3, the mouse was subjected to the present experiment.
Each compound was dissolved or suspended in a solution to be administered, and 0.5 ml of the solution was orally administered. Such administration was carried out twice in total, that is, on the initiation date of administration and 3 days after the administration. The antitumor effect was calculated as a tumor growth inhibition by comparing the solution administration group with a control group in terms of tumor growth. Tumor growth inhibition(TGI)=(1−the tumor growth amount of agent-treated group/the tumor growth amount of control group)×100(%)

Test [2] has as its system human colon cancer cell line HCT116. Briefly: Measurement of cell growth inhibitory activity (Cell Counting Kit-8). Format: cell-based. The conditions noted are these: HCT-116, 96 h, HCT116, 2,000 cells/well, cultured 4 days. How it is done:
[Measurement of Cell Growth Inhibitory Activity]
Several representative examples of the compound group of the present invention were measured in terms of cell growth inhibitory activity.
Cancer cell growth inhibitory activity was measured using Cell Counting Kit-8 manufactured by Dojindo Laboratories. The human colon cancer cell line HCT116 obtained from American Type Culture Collection (Virginia, U.S.A) was inoculated in a 96-well culture plate at a concentration of 2,000 cells/well. Thereafter, a certain concentration of compound was added thereto, and the obtained mixture was then cultured at 37° C. in 5% CO2 for 4 days. On the 4th day of the culture, a Cell Counting Kit-8 solution was added to the culture product, and absorbance (measurement wavelength: 450 nm; reference wavelength: 615 nm) was measured in accordance with protocols included with the kit. Thereafter, 50% growth inhibitory concentration (IC50) was calculated.
(Tetrazolium assays rely on reduction of a dye to a coloured formazan, in cell work by metabolically active cells.)

As for `O=c1[nH]c(-c2ccccc2)cc2ccc(N3CCOCC3)cc12` [Compound 8, 7-morpholin-4-yl-3-phenyl-2H-isoquinolin-1-one], in test [1] (dose 12.5 mg/kg), the “TGI (%) on day 7” value turned out to be 96%. In addition, the IC50 in test [2] came to 28 nM.

`O=c1[nH]c(-c2ccccc2C(F)(F)F)cc2ccc(N3CCCCC3)cc12` [Compound 10, 7-piperidin-1-yl-3-(2-trifluoromethylphenyl)-2H-isoquinolin-1-one]: the “TGI (%) on day 7” value in test [1] (dose 50 mg/kg) was 91%. Moreover, the IC50 in test [2] is 97 nM.

In test [2], `O=c1[nH]c(-c2ccccc2)cc2ccc(N3CCC(CO)CC3)cc12` [Compound 21, 7-(4-hydroxymethylpiperidin-1-yl)-3-phenyl-2H-isoquinolin-1-one] yielded a half-inhibitory concentration (IC50) of 20 nM.

`O=c1[nH]c(-c2ccccc2C(F)(F)F)cc2ccc(N3CCC(O)CC3)cc12` [Compound 29, 7-(4-hydroxypiperidin-1-yl)-3-(2-trifluoromethylphenyl)-2H-isoquinolin-1-one] registered an IC50 in test [2] of 52 nM.

Regarding `O=c1[nH]c(-c2ccccc2)cc2ccc(N3CCC(O)C3)cc12` (stereo not drawn) [Compound 36, 7-(3-hydroxypyrrolidin-1-yl)-3-phenyl-2H-isoquinolin-1-one], in test [2], it took 18 nM to reach half-maximal inhibition (IC50).

For `CCOC(=O)Nc1ccc2cc(-c3ccccc3C(F)(F)F)[nH]c(=O)c2c1` [Compound 61, ethyl[1-oxo-3-(2-trifluoromethylphenyl)-1,2-dihydroisoquinolin-7-yl]carbamate], the “TGI (%) on day 7” value in test [1] (dose 200 mg/kg) turned out to be 73%. This compound also registered an IC50 in test [2] of 21 nM.
